# Results from patent US7261906B2, “Anti-cancer therapy agent of arsenic hexoxide (As4O6) of a natural chemical substance and its pharmaceutical composition” (priority 1998, dated 2007).
# Values joined by “and” are separate entries in the source; they are usually repeats but may differ in a detail not shown here. Equal entries are not always repeated. Marks after values point to notes of the source that are not given here.
# Tests used:
# [1] = test system: cloned tumor cells of mice and human beings; assay: Direct cytotoxicity of HD-2 relative to cisplatin over the clones; type: cell-based; conditions: 48 hours of incubation, mean over clones of Table 5
# Procedure: Cloned tumor cells of P388 leukemia, L1210 leukemia, L5178Y lymphoma, Colon26-M3.1 carcinoma, and B16-BL6 melanoma, from mice, and K562 leukemia, liver carcinoma HEP-G2, Hs578T breast cancer, AN-3-CA adenocarcinoma, DLD colon carcinoma, and HeLa epitheloid carcinoma, from human beings, were cultured in EMM, DMEM, or RMPI-1640 culture media containing 7.5% fetal bovine serum (FBS), as described in ATCC manual. […] Tumor cells in test wells were incubated in 5% CO2 incubator at 37° C. for 2 days.
# [2] = Subacute toxicity, oral administration once a day for 4 weeks; type: in vivo, Rats (Sprague Dawley strain); conditions: for ALT / ALB / AST / BUN / CHOL / CREAT / Ca / GLU / TB / TG / TP: female rats
# Procedure: The subacute toxicity of oral administration of HD-2 was evaluated according to toxicity assessment criteria described in Article 96-8 of Notice on rood and Drug Safety (Apr. 16, 1994). Rats (Sprague Dawley . strain) were used for experiments, as was the case for acute toxicity experiments. […]
# Following items were observed during the period of study. • 1) General symptoms: General symptoms, such as anorchism, salivation, diarrhea, vomiting, polyuria, anuria, and fecal change and the severity of these symptoms were evaluated once a day during the study period. • 2) Food consumption: Twice a week, the amount of consumed food and the remaining amount were checked per cage. • 3) Water consumption: Twice a week, the amount of consumed water and the remaining amount were checked per cage. • 4) Weight: Weights were measured twice a week until the end of the study. • 5) Urinalysis: Urine samples were collected during study period from 5 randomly selected rats per study subgroup and appearance, volume, and colors were recorded. Using urinalysis kits (N-multistix of Amersham), pH, gravity, leukocyte, protein, ketone body, urobilinogen, glucose and blood urea nitrogen were measured. • 6) Eye examination: Ophthalmoscopic examination of 5 randomly selected rats per study subgroup was performed to evaluate the external appearance, cornea, and:fundus of the eye. • 7) Hematological and biochemical analysis: Routine blood test was done to measure red blood cell count, white blood cell count, hemoglobin concentration, number of monocytes and lymphocytes, and blood coagulation time. Biochemical analysis of serum was done to measure the activity of […], aspartate transaminase, alkaline phosphate, and albumin. • 8) Size and weight of organs: For every animal studied, weight and size of major organs were measured relative to body weight. Measured organs included liver, kidney, spleen, heart, adrenal gland, brain, thyroid gland, ovary, and testis. • 9) Pathological examination: Organs were fixed in formalin after measurement of weight and size and fixed tissues were cut into […] slices using microtome (AO Rotate Microtome) and stained with hematoxylin and eosin for microscopic study.
# B16-BL6 melanoma = assay: Neovascularization and tumor size after intradermal melanoma injection; type: in vivo, C57BL/6 mice; conditions: one milligram orally three days after tumor injection
# Procedure: The in vivo mechanism of anticancer effect of HD-2 was studied in mice. After suspending 4×10^5 cells of B16-BL6 melanoma in 50% PBS, they were injected intradermally into 2 sites on the back of 6- to 7-week old C57BL/6 mice. Three days after the tumor injection, one milligram of HD-2 was given orally and size of inoculated melanoma and number of blood vessels at and around tumor sites were measured. Control group was treated with oral administration of PBS.
# [3] = test system: N-nitrosodiethylamine (NDEA)-induced tumors in lung and liver; assay: Carcinogen-induced oncogenesis in liver and lung; type: in vivo, mouse (B6C3F1 strain); conditions: for incidence of NDEA-induced hepatic tumor (words): oral HD-2, FIG. 6
# Procedure: To examine the inhibitory effect of HD-2 on carcinogen-induced oncogenesis, N-nitrosodiethylamine (NDEA) was injected as a carcinogen into peritoneal cavity of mouse (B6C3F1 strain) at a concentration of 90 mg per kg body weight to induce cancer. At 2, 4, 8, 16, and 32 weeks after carcinogen injection, […] of HD-2 was administered orally and the same amount of distilled water was injected into control group. Forty-two weeks after NDEA treatment, mice were sacrificed to measure the incidence and the size of tumors formed in lung and liver. […] The incidence of NDEA-induced hepatic tumor was above 90%, but following HD-2 administration, the incidence was lowered to 5 to 22%, despite of variation depending on the period of HD-2 administration. Thus HD-2 inhibited carcinogen-induced oncogenesis in liver by 78 to 95. […] In lung, the inhibitory effect of HD-2 on reducing carcinogen-induced oncogenesis was not so dramatic as in liver. However, if HD-2 was given at 4 weeks after NDEA injection, carcinogen-induced oncogenesis was inhibited by 30%.
# B16-BL6 melanoma cells = assay: Inhibitory effect of orally-administered HD-2 on cancer metastasis (lung); type: in vivo, mice
# From the text: B16-BL6 melanoma cells or colon26-M3.1 carcinoma cells were inoculated into mice and number of metastatic tumor masses appearing in lungs was counted. […] The peak activity was observed a: 1-mg dose with very high anticancer efficacy (86%). […] This indicated oral administration of HD-2 was quite effective for treatment of established cancer.
compound,measurement,setting,value
"O1[As]2O[As]3O[As]1O[As](O2)O3 [HD-2, arsenic hexoxide (As4O6)]","direct cytotoxicity, times as high as cisplatin",[1],50 times
same,ALT,[2]; High 100 mg/kg/day oral,29.67 μ/l
same,ALB,[2]; High 3.0 g/kg/day oral,3.33 g/dL
same,AST,[2]; High 3.0 g/kg/day oral,77.87* μ/l
same,BUN,[2]; High 3.0 g/kg/day oral,13.13 mg/dL
same,CHOL,[2]; High 3.0 g/kg/day oral,44.33 mg/dL
same,CREAT,[2]; High 3.0 g/kg/day oral,0.47 mg/dL
same,Ca,[2]; High 3.0 g/kg/day oral,8.73 mg/dL
same,GLU,[2]; High 3.0 g/kg/day oral,63.03 mg/dL
same,TB,[2]; High 3.0 g/kg/day oral,0.18 mg/dL
same,TG,[2]; High 3.0 g/kg/day oral,62.33 mg/dL
same,TP,[2]; High 3.0 g/kg/day oral,5.93 g/dL
same,ALB,[2]; Low 0.03 g/kg/day oral,3.60 g/dL
same,ALT,[2]; Low 0.03 g/kg/day oral,27.10 μ/l
same,AST,[2]; Low 0.03 g/kg/day oral,70.10* μ/l
same,BUN,[2]; Low 0.03 g/kg/day oral,11.43 mg/dL
same,CHOL,[2]; Low 0.03 g/kg/day oral,42.33 mg/dL
same,CREAT,[2]; Low 0.03 g/kg/day oral,0.40 mg/dL
same,Ca,[2]; Low 0.03 g/kg/day oral,8.77 mg/dL
same,GLU,[2]; Low 0.03 g/kg/day oral,67.70 mg/dL
same,TB,[2]; Low 0.03 g/kg/day oral,0.14 mg/dL
same,TG,[2]; Low 0.03 g/kg/day oral,50.00 mg/dL
same,TP,[2]; Low 0.03 g/kg/day oral,6.27 g/dL
same,ALB,[2]; Medium 0.3 g/kg/day oral,3.70 g/dL
same,ALT,[2]; Medium 0.3 g/kg/day oral,27.00 μ/l
same,AST,[2]; Medium 0.3 g/kg/day oral,87.53 μ/l
same,BUN,[2]; Medium 0.3 g/kg/day oral,13.18 mg/dL
same,CHOL,[2]; Medium 0.3 g/kg/day oral,40.50 mg/dL
same,CREAT,[2]; Medium 0.3 g/kg/day oral,0.53 mg/dL
same,Ca,[2]; Medium 0.3 g/kg/day oral,8.95 mg/dL
same,GLU,[2]; Medium 0.3 g/kg/day oral,70.00 mg/dL
same,TB,[2]; Medium 0.3 g/kg/day oral,0.16 mg/dL
same,TG,[2]; Medium 0.3 g/kg/day oral,56.25 mg/dL
same,TP,[2]; Medium 0.3 g/kg/day oral,6.53 g/dL
same,kidney pathology: hemosiderin in and atrophy of proximal tubular epithelium,"[2]; high-dose group (100 mg/kg body weight), 4 weeks",observed to a slight degree
same,kidney pathology,"[2]; medium-dose group, 4 weeks",no such pathology was observed
same,Hematological and biochemical study vs control groups,"[2]; oral, once a day for 4 weeks",did not reveal any significant difference
same,clinical symptoms incl. changes in weight and consumption of food and water,"[2]; oral, once a day for 4 weeks",no specific clinical symptom
same,urinalysis and eye examination,"[2]; oral, once a day for 4 weeks",any significant abnormality was not observed
same,fatal cases,"[2]; oral, once a day for 4 weeks, 1, 10, 100 mg per kg body weight",fatal cases were not observed
same,size of solid tumor mass,B16-BL6 melanoma,decreased significantly
same,number of new blood vessels at and around tumor sites,B16-BL6 melanoma; FIG. 5,tended to decrease
same,incidence of NDEA-induced lung cancer,[3]; FIG. 7,decreases the incidence of lung cancer
same,inhibition of carcinogen-induced oncogenesis in lung,[3]; HD-2 given at 4 weeks after NDEA injection,30%
same,number of tumor masses in lung,"[3]; HD-2 group, FIG. 7",about 2
same,spontaneous cancers of lung,[3]; oral HD-2,completely suppressed
same,spontaneous hepatoma,[3]; oral HD-2,inhibited spontaneous hepatoma completely
same,incidence of NDEA-induced hepatic tumor (words),[3],effectively inhibited
same,incidence of NDEA-induced hepatic tumor (words),[3]; listed as As4O6,decreases hepatoma incidence
same,inhibitory rate,B16-BL6 melanoma cells; 0.1 mg oral administration +1,38.5%
same,"number of metastatic masses, mean ±SD",B16-BL6 melanoma cells; 0.1 mg oral administration +1,75 ± 28
same,inhibitory rate,B16-BL6 melanoma cells; 0.1 mg oral administration +7,41.4%
same,"number of metastatic masses, mean ±SD",B16-BL6 melanoma cells; 0.1 mg oral administration +7,95 ± 23
same,inhibitory rate,B16-BL6 melanoma cells; 1 mg oral administration +1,86% and 86.1%
same,"number of metastatic masses, mean ±SD",B16-BL6 melanoma cells; 1 mg oral administration +1,17 ± 9
same,inhibitory rate,B16-BL6 melanoma cells; 1 mg oral administration +7,70% and 70.4%
same,"number of metastatic masses, mean ±SD",B16-BL6 melanoma cells; 1 mg oral administration +7,48 ± 19
same,inhibitory rate,B16-BL6 melanoma cells; 10 mg oral administration +1,63.1%
same,inhibitory rate,B16-BL6 melanoma cells; 10 mg oral administration +7,66.1%
same,"number of metastatic masses, mean ±SD",B16-BL6 melanoma cells; 10 mg oral administration +7,55 ± 13
same,"number of metastatic masses, mean ±SD",B16-BL6 melanoma cells; 10 mg oral administration +1 day after inoculation,45 ± 25
same,anti-metastatic effect compared to the control group,"B16-BL6 melanoma cells; oral administration, 0.1 to 10 mg",significant anti-metastatic effect
